The source of these data is US9163013B2, “Use of 1H-indazole-3-carboxamide compounds as glycogen synthase kinase 3 beta inhibitors” (AZIENDE CHIMICHE RIUNITE ANGELINI FRANCESCO A.C.R.A.F. …, priority 2012, dated 2015).

Each structure is given as a SMILES string. Several values for one entry are separate records, joined by “and”; a condition that tells them apart may be missing. Equal values may be shown once.

In one assay the target is T1, human GSK-3β (Homo sapiens (Human), UniProt P49841). Description: Activity on human GSK-3β, substrate phosphorylation measured by LANCE technology. It counts as biochemical. Particulars: 10 μM, duplicate, human recombinant GSK-3β, 90 minutes at 22° C. The method, then: Activity on human GSK-3β was assessed using the following methods (according to Meijer et al., Chem. Biol., 2003-10:1255-1266).
T1 sequence (P49841 whole entry): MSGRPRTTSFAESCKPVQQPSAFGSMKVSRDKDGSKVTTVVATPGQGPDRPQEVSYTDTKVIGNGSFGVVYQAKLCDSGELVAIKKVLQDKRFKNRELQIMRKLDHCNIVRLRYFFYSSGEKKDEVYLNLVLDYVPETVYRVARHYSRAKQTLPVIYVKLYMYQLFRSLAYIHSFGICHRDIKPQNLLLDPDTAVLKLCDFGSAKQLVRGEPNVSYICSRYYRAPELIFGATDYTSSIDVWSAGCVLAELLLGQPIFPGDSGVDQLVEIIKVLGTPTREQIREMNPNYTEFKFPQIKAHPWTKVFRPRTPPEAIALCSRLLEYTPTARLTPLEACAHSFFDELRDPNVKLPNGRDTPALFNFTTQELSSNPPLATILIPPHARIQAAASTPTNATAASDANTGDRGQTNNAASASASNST
In a first screening assay, compounds were tested in duplicate at a concentration of 10 μM.
Human recombinant enzyme GSK-3β was incubated for 90 minutes at 22° C. in the presence of compounds or vehicle in a reaction buffer containing ATP plus 100 nM unphosphorylated specific substrate peptide (Ulight-[…]-amide). Substrate phosphorylation was measured by LANCE technology (PerkinElmer, Conn., USA).
The results, reported in the following Table 4, are expressed as a percent of inhibition of control specific activity obtained in the presence of the test compounds (as % inhibition at 10 μm).
(§1) In a second assay, the same compounds were assayed at five concentrations ranging from 100 μM to 10 nM with ten-fold dilutions in duplicate. Compounds 1 to 7, 9, 11 and 13 to 26 were tested using the same first assay, compounds 8, 10, 12, and 27 to 31 were tested in another assay based on the binding and displacement of AlexaFluor® 647 labeled, ATP-competitive Kinase inhibitor scaffold using LanthaScreen™ TR-FRET technology Eu Kinase assay packet according to manufacturer's instruction (Life Technologies, Italy).
(§2) The IC50 values (concentration causing a half maximal inhibition of control specific activity), reported in table 4, were determined by non-linear regression analysis of the inhibition curves generated with mean replicate values using Hill equation curve fitting.
(In general: TR-FRET usually uses a lanthanide donor and a delayed reading to cut background.)
As for `COc1ccc(CCN2CCC(CNC(=O)c3n[nH]c4ccc(OC)cc34)CC2)cc1` [Compound 2, 5-methoxy-N-({1-[2-(4-methoxyphenyl)ethyl]piperidin-4-yl}methyl)-1H-indazole-3-carboxamide], the “% Inhibition [10 μM]” value came out at 91% and the inhibition (usually how much of the control response was suppressed) at 10 µM was more than 90%.

Still in this assay, the particulars now being: LANCE phosphorylation assay; five concentrations 100 μM to 10 nM, duplicate; read-out: IC50.
Regarding `COC(=O)c1coc(CN2CCC(CNC(=O)c3n[nH]c4ccc(Br)cc34)CC2)n1` [Compound 11, Methyl 2-{[4-({[(5-bromo-1H-indazol-3-yl)carbonyl]amino}methyl)piperidin-1-yl]methyl}-1,3-oxazole-4-carboxylate], the IC50 (in general, the concentration needed to halve the response being measured) was found to be 360 nM.

In the case of `COc1ccc(-c2ccc3[nH]nc(C(=O)NCC4CCN(Cc5ccc(C(=O)O)o5)CC4)c3c2)cn1` [Compound 17, 5-({4-[({[5-(6-Methoxypyridin-3-yl)-1H-indazol-3-yl]carbonyl}amino)methyl]piperidin-1-yl}methyl)furan-2-carboxylic acid hydrate], the IC50 amounted to 20 nM.

Turning to `CCOC(=O)c1ccc(CN2CCC(CNC(=O)c3n[nH]c4ccc(OC)cc34)CC2)o1` [Compound 23, Ethyl 5-{[4-({[(5-methoxy-1H-indazol-3-yl)carbonyl]amino}methyl)piperidin-1-yl]methyl}furan-2-carboxylate], the IC50 was 330 nM.

As for `COc1ccc2[nH]nc(C(=O)NCC3CCN(Cc4ccc(C(F)(F)F)cc4)CC3)c2c1` [Compound 4, 5-methoxy-N-({1-[4-(trifluoromethyl)benzyl]piepridin-4-yl}methyl)-1H-indazole-3-carboxamide], the IC50 is 640 nM.

With `COc1ccc2[nH]nc(C(=O)NCC3CCN(Cc4ccc(Cl)cc4Cl)CC3)c2c1` [Compound 3, N-{[1-(2,4-dichlorobenzyl)piperidin-4-yl]methyl}-5-methoxy-1H-indazole-3-carboxamide], the IC50 came to 310 nM.

Regarding `COc1ccc2[nH]nc(C(=O)NCC3CCN(CCCN4C[C@@H](C)O[C@@H](C)C4)CC3)c2c1` [Compound 26, N-[(1-{3-[(2R,6S)-2,6-dimethylmorpholin-4-yl]propyl}piperidin-4-yl)methyl]-5-methoxy-1H-indazole-3-carboxamide], the half-maximal inhibitory concentration (IC50) was > 1000 nM and 2100 nM.

For the compound `CCOC(=O)c1ccc(CN2CCC(CNC(=O)c3n[nH]c4ccc(Br)cc34)CC2)o1` [Compound 15, Ethyl 5-{[4-({[(5-bromo-1H-indazol-3-yl)carbonyl]amino}methyl)piperidin-1-yl]methyl}furan-2-carboxylate], the IC50 turned out to be 260 nM.

Consider `COC(=O)c1ccoc1CN1CCC(CNC(=O)c2n[nH]c3ccc(OC)cc23)CC1` [Compound 14, Methyl 2-{[4-({[(5-methoxy-1H-indazol-3-yl)carbonyl]amino}methyl)piperidin-1-yl]methyl}furan-3-carboxylate], for which the 50% inhibitory concentration (IC50) was 230 nM.

In the case of `COc1ncccc1-c1ccc2[nH]nc(C(=O)NCC3CCN(Cc4ccc(C(=O)O)o4)CC3)c2c1` [Compound 16, 5-({4-[({[5-(2-Methoxypyridin-3-yl)-1H-indazol-3-yl]carbonyl}amino)methyl]piperidin-1-yl}methyl)furan-2-carboxylic acid hydrate], the IC50 came to 360 nM.

Turning to `COc1ccc(-c2ccc3[nH]nc(C(=O)NCC4CCN(Cc5ccc(C(=O)O)o5)CC4)c3c2)cc1` [Compound 18, 5-({4-[({[5-(4-Methoxyphenyl)-1H-indazol-3-yl]carbonyl}amino)methyl]piperidin-1-yl}methyl)furan-2-carboxylic acid hydrate], the IC50 was found to be 300 nM.

As to `COc1ccc2[nH]nc(C(=O)NCC3CCN(Cc4ccc(O)cc4)CC3)c2c1` [Compound 6, N-{[1-(4-hydroxybenzyl)piperidin-4-yl]methyl}-5-methoxy-1H-indazole-3-carboxamide], the 50% inhibitory concentration (IC50) was determined as 400 nM.

Take `O=C(O)c1ccc(CN2CCC(CNC(=O)c3n[nH]c4ccc(Br)cc34)CC2)o1` [Compound 22, 5-{[4-({[(5-Bromo-1H-indazol-3-yl)carbonyl]amino}methyl)piperidin-1-yl]methyl}furan-2-carboxylic acid]: the concentration for half-maximal inhibition (IC50) was 210 nM.

For `COC(=O)c1coc(CN2CCC(CNC(=O)c3n[nH]c4ccc(OC)cc34)CC2)n1` [Compound 9, Methyl 2-{[4-({[(5-methoxy-1H-indazol-3-yl)carbonyl]amino}methyl)piperidin-1-yl]methyl}-1,3-oxazole-4-carboxylate], the IC50 stood at 210 nM.

As for `COc1ccc2[nH]nc(C(=O)NCC3CCN(CCN4C[C@@H](C)O[C@@H](C)C4)CC3)c2c1` [Compound 25, N-[(1-{2-[(2R,6S)-2,6-dimethylmorpholin-4-yl]ethyl}piperidin-4-yl)methyl]-5-methoxy-1H-indazole-3-carboxamide], the IC50 is > 1000 nM and 1400 nM.

Turning to `O=C(O)c1ccc(CN2CCC(CNC(=O)c3n[nH]c4ccc(-c5cccc(F)c5F)cc34)CC2)o1` [Compound 19, 5-({4-[({[5-(2,3-Difluorophenyl)-1H-indazol-3-yl]carbonyl}amino)methyl]piperidin-1-yl}methyl)furan-2-carboxylic acid], the IC50 turned out to be 10 nM.

As for `COc1ccc(CCN2CCC(CNC(=O)c3n[nH]c4ccc(OC)cc34)CC2)cc1` [Compound 2, 5-methoxy-N-({1-[2-(4-methoxyphenyl)ethyl]piperidin-4-yl}methyl)-1H-indazole-3-carboxamide], the IC50 was < 600 nM and 560 nM.

`COc1ccc2[nH]nc(C(=O)NCC3CCN(Cc4ccc(OCc5ccccc5)cc4)CC3)c2c1` [Compound 5, N-({1-[4-(benzyloxy)benzyl]piperidin-4-yl}methyl)-5-methoxy-1H-indazole-3-carboxamide]: the half-inhibitory concentration (IC50) is 350 nM.

As for `O=C(O)c1ccc(CN2CCC(CNC(=O)c3n[nH]c4ccc(-c5ccccc5F)cc34)CC2)o1` [Compound 20, 5-({4-[({[5-(2-Fluorophenyl)-1H-indazol-3-yl]carbonyl}amino)methyl]piperidin-1-yl}methyl)furan-2-carboxylic acid hydrate], the IC50 came to 20 nM.

For the compound `CCOC(=O)c1nc(CN2CCC(CNC(=O)c3n[nH]c4ccc(OC)cc34)CC2)cs1` [Compound 13, Ethyl 4-{[4-({[(5-methoxy-1H-indazol-3-yl)carbonyl]amino}methyl)piperidin-1-yl]methyl}-1,3-thiazole-2-carboxylate], the IC50 was 950 nM.

Another assay has as its target T1, human GSK-3β. The experiment in a line: LanthaScreen TR-FRET Eu Kinase binding and displacement assay. Particulars: five concentrations 100 μM to 10 nM, duplicate. As to the method: as §1, §2
Compound `COc1ccc2[nH]nc(C(=O)NCC3CCN(CCC4CCCC(C)C4)CC3)c2c1` (stereo not drawn) [Compound 27, 5-methoxy-N-({1-[2-(3-methylcyclohexyl)ethyl]piperidin-4-yl}methyl)-1H-indazole-3-carboxamide] showed an IC50 of 310 nM.

Compound `COc1ccc2[nH]nc(C(=O)NCC3CCN(Cc4ccc(C(=O)O)nc4)CC3)c2c1` [Compound 29, Sodium 5-{[4-({[(5-methoxy-1H-indazol-3-yl)carbonyl]amino}methyl)piperidin-1-yl]methyl}pyridine-2-carboxylate] displayed an IC50 of 320 nM.

As for `COc1ccc2[nH]nc(C(=O)NCC3CCN(Cc4nc(C(=O)O)cs4)CC3)c2c1` [Compound 8, 2-{[4-({[(5-Methoxy-1H-indazol-3-yl)carbonyl]amino}methyl)piperidin-1-yl]methyl}-1,3-thiazole-4-carboxylic acid], the 50% inhibitory concentration (IC50) is 170 nM.

On to `COc1ccc2[nH]nc(C(=O)NCC3CCN(Cc4nc(C(=O)O)co4)CC3)c2c1` [Compound 10, 2-{[4-({[(5-Methoxy-1H-indazol-3-yl)carbonyl]amino}methyl)piperidin-1-yl]methyl}-1,3-oxazole-4-carboxylic acid hydrate], for which the IC50 was 310 nM.

In the case of `COc1ccc2[nH]nc(C(=O)NCC3CCN(Cc4ccnc(C(=O)O)c4)CC3)c2c1` [Compound 28, 4-{[4-({[(5-methoxy-1H-indazol-3-yl)carbonyl]amino}methyl)piperidin-1-yl]methyl}pyridine-2-carboxylic acid], the concentration for half-maximal inhibition (IC50) is 450 nM.

`COc1ccc2[nH]nc(C(=O)NCC3CCN(Cc4noc(C(N)=O)n4)CC3)c2c1` [Compound 30, N-({1-[(5-carbamoyl-1,2,4-oxadiazol-3-yl)methyl]piperidin-4-yl}methyl)-5-methoxy-1H-indazole-3-carboxamide]: the IC50 was 310 nM.
